Source: patent US20230220354A1, “COMPOSITIONS AND METHODS FOR CONTROLLING CELLULAR IDENTITY” (King Abdullah University of Science and Technology, priority 2020, published 2023)
Entries after “also recorded” stand apart in the source; their conditions may differ.

What was measured:
[1] = test system: primary cultures of mature astrocytes; test: Customization of C1-MIM concentrations: relative gene expression (Gfap, Cd44) by rtPCR in mature astrocytes; assay type: cell-based, mouse
Experimental: Astrocytes were derived from cortical tissues postnatal or differentiated from dissociated neurospheres after a second or third passage, as described herein. For postnatal astrocytes, cortices were isolated from P4 mice pups to get single cells and were plated as described by Schildge et al.^51Confluent cultures were sorted with Anti-GLAST (ACSA-1) Microbead kit according to manufacturer instructions. For inducing differentiation from NSCs, single cells derived from neurospheres were exposed to astrocyte media. In both cases, cells were plated over pre-treated Poly-L-Lysine plates or Poly-D-Lysine glass-coverslips using Astrocyte Differentiation Medium (DMEM-F12, 10% heat-inactivated FBS, lx B27, and 1X Glutamax).
Cell cultures seeded on adherent conditions were kept on their respective differentiation media until they reach a mature phenotype (defined by the expression of markers specific to each cell type). When cultures reached around 80-90% confluence, the differentiation media was removed, cells were washed twice with PBS and the media was replaced with CI-MIM. The composition of C1-MIM includes up to 6 metabolites (details of the combinations used are specified in figure legends) including Methionine, Threonine, Glycine, Putrescine, Cysteine [5mM], and S-adenosylmethionine [0.05mM], which are dissolved in a base medium (BM) composed by DMEM-F12 plus Neurobasal [1:1], supplemented with 1X B27, 1X N2. […] In all cases, from the same batch of each cell culture, a control culture was also washed with PBS but maintained with their own differentiation media along all the time of the treatment. Cells in this schema were fed every other day. Cells were monitored daily to attest to the change in morphology. Cells were collected on the fifth day or earlier after starting the MIM treatment (indicated in each specific case in the figure legend) for further analyses, as indicated in the figure legends of each experimental approach. Viability of cultures at the time of collection was measured by trypan blue, and all cases above 85% viable cells were processed for downstream analyses.
Total RNA was isolated from cells grown on Petri dish at the indicated time points, using the RNeasy Plus Mini kit QIAGEN, according to the manufacturer's protocol, including a DNA-removal step with DNAseI. Amount and purity of RNA were assessed using a NanoDrop spectrophotometer (Nanodrop Technologies); at least 500 ng of total RNA was used to synthesize cDNA by reverse transcription, using Maxima™ H
Minus cDNA Synthesis Master Mix. 2.5-10 ng of cDNA was used in the following qPCR performed on a CFX384 thermal cycler (Bio-Rad) using the SsoAdvanced™ Universal SYBR® Green Supermix. Results were normalized to at 193 least one reference genes β-Actin, RPL38, GAPDH, Gus, CTCF, and Natl, specified per figure), selected for their highest stability among a pool of common housekeeping genes. Primers were designed by NCBI/Primer-BLAST primers designing tool (Table 1). Statistical analysis of the results was performed using the 2ACt method^s. Results were expressed relative to the expression values of the experimental control.
The cocktail customization was performed in primary cultures of mature astrocytes, between the second and the fourth passage. Those cells were maintained at least 8 days in culture before passaging. […] We tested individual metabolites at different concentrations in a serum-free medium (base media, BM). […]

[2] = test system: astrocytes; test: Lethality of individual metabolites for astrocytes in serum-free base medium; assay type: cell-based, mouse; details: millimolar (high) concentrations
Experimental: The cocktail customization was performed in primary cultures of mature astrocytes, between the second and the fourth passage. Those cells were maintained at least 8 days in culture before passaging. We corroborated the expression of Gfap before starting the experiment by immunocytochemistry (FIG. 1G). We tested individual metabolites at different concentrations in a serum-free medium (base media, BM). BM contained equivalent volumes of DMEM-F12 and Neurobasal, plus the supplements N2 and B27 at 1X. Notes about specific molecules added. S-adenosylmethionine (SAM) at millimolar concentrations was lethal for astrocytes, which is in line with the lower physiological concentrations usually found for this metabolite compared to others. Cysteine is high-sensitive to oxidation, which is manifested as white flake precipitation, a high-concentrated stock solution [2500mM] dissolved in ddH2O with pH slightly acid (5.5-6) was prepared to prevent this issue. We corroborated a pH always close to 7.4 in the cells maintained in vitro, before and after treating them with cocktails containing the diluted solution of cysteine.

Compound: C[C@@H](O)[C@H](N)C(=O)O [threonine]
- Gfap expression ([1]; separate metabolite at 1mM): repressed

Compound: NCCCCN [putrescine]
- Gfap expression ([1]; separate metabolite at 1mM): repressed

Compound: FGF2: growth factor added to improve cell survival in serum-free medium [reference compound]
- Gfap expression ([1]; 20ng/mL): did not inhibit
- Gfap expression ([1]; concentrations lower than 20ng/mL): potentiate

Compound: N[C@@H](CS)C(=O)O [cysteine]
- Gfap expression ([1]; individual metabolite, range of concentrations (0.025 to 10mM)): potentiates

Compound: C[S+](CC[C@H](N)C(=O)[O-])C[C@H]1O[C@@H](n2cnc3c(N)ncnc32)[C@H](O)[C@@H]1O (stereo partly shown) [S-adenosylmethionine]
- lethality / toxicity for astrocytes [2]: lethal; also recorded: toxic
- lethality / toxicity for astrocytes ([2]; listed as SAM): lethal
